Where two headings read alike, the source gives them in different places.
Tests used:
HLA-E-β2m complexes [1] = format: binding, human; settings: 200 M excess peptide, 2 h at room temperature
HLA-E-β2m complexes [2] = format: binding, human; settings: for Thermal melt (Tm) of peptide-refolded HLA-E-β2m complex: Protein Thermal Shift dye, 5 μg complex, ramp 25 to 95 °C, quadruplicate, median Derivative Tm
[3] = test system: Mamu-E-restricted CD8+ T cells; format: cell-based, rhesus macaques
[4] = test system: Mamu-E restricted CD8^+ T cells; format: cell-based, rhesus macaques (Macaca mulatta)

| Sequence | Displacement of VL9 from pre-refolded HLA-E-β2m-VL9 complexes (BN-PAGE) (HLA-E-β2m complexes [1]) | Thermal melt (Tm) of peptide-refolded HLA-E-β2m complex (HLA-E-β2m complexes [2]) | Rhesus CD8+ T cell responses to peptide presented by Mamu-E versus HLA-E [3] | Mamu-E restricted CD8+ T cell responses (IFNγ and/or TNFα, ICS) [4] | Mamu-E restricted CD8+ T cell responses (IFNγ and/or TNFα, ICS) ([4]; PBMC of six RM vaccinated with HIVGag-insert RhCMV68-1 vector, blocking with VL9 (MHC-E) or CLIP + anti-MHC-II) | Increase in stability (Tm) of the HLA-E-β2m complex versus no peptide refolded forms (HLA-E-β2m complexes [2]) |
| --- | --- | --- | --- | --- | --- | --- |
| RLPAKAPLL [Mtb44] | readily displaced | 50.2 °C | of comparable magnitude | elicited Mamu-E-restricted CD8^+ T cell responses |  |  |
| RMYSPTSIL [RL9HIV] | also displaced VL9 from HLA-E-β2m complexes | not possible to obtain a reproducible thermal melt pattern | of comparable magnitude |  | elicited Mamu-E restricted CD8^+ T cell responses |  |
| VMAPRTVLL [VL9, reference compound] |  | 47.5 °C |  |  |  | ≤ 10 °C |

Source: article PMC6081459, “Pathogen-derived HLA-E bound epitopes reveal broad primary anchor pocket tolerability and conformationally malleable peptide binding” (Nature Communications, 2018)
